Paper PMC8998618, “A Pharmacokinetic and Metabolism Study of the TRPC6 Inhibitor SH045 in Mice by LC-MS/MS” (International Journal of Molecular Sciences, 2022)
Values joined by “and” are separate entries in the source; they are usually repeats but may differ in a detail not shown here. Equal values may be shown once.

Columns and labels:
[1] = appearance of SH045 in urine after i.v. administration; format: in vivo, mice; conditions: 20 mg/kg BW i.v.
Experimental: Mouse renal elimination of SH045 was exploratorily monitored up to their first spontaneous micturition after i.v. administration (20 mg/kg BW). Samples of released urine were assigned to micturition periods of 10–30, 60–80, or 100–120 min following application. Mean urine concentrations of unmetabolized SH045 of 748 ± 31 (n = 3), 1056 ± 104 (n = 3), and 162 ± 17 nM (n = 6), respectively, were recorded.
Via heparin-coated catheters a maximum of 50 µL blood was collected from the tail vein at 0.25, 0.5, 1, 2, 3, 4, 6, 8, or 24 h after administration and immediately centrifuged at 4000× g at 4 °C for 10 min. For repeated administration 20 mg/kg BW SH045 were administered at 8:00 a.m. on five consecutive days, once a day. Blood was taken 1 h and 24 h after drug administration. Tissue samples were harvested from isoflurane-euthanized animals at indicated time points. Mice were transcardially perfused with PBS and dissected tissues were washed to remove remaining blood. Plasma and tissue samples were stored at −80 °C until analysis. Urine was collected by bladder puncture at indicated time points.
For tissue analysis, homogenates (10% in phosphate-buffered saline, PBS) were prepared. Homogenate, plasma, and urine were mixed with IS and extracted with ice-cold ACN, centrifuged, filtered and stored in the autosampler at 6 °C until analysis in duplicates by LC-MS/MS (details in Supplementary Materials SM4).

[2] = system: cytochrome P450 isoenzymes; test: cytochrome P450 isoenzyme inhibition with isoform-specific inhibitors in liver microsomes; format: in vitro ADME, mouse and human; conditions: MLM and HLM, 2 µM SH045, isoform-specific inhibitors
Experimental: To determine possible metabolizing pathways of SH045 in MLM and HLM, an in vitro inhibition approach was performed with CYP-isoform specific inhibitors. […]
homogenates, and shaken vigorousl y for 5 min. 40 µL urine was mixed with 4 µL of IS and extracted with 156 µL pure […]
All microsome incubations were stopped with 1 mL ice -cold ACN containing 5 µg/mL IS, vortexed for 1 min and cooled at -20 °C for 10 min.
After centrifugation of mixtures from tissue or microsomal incubations for 15 min at 4 °C, the supernatants were filtered through a 0.2 -µm-pore-size syringe filter and stored in the autosampler at 6 °C until analysis by LC-MS/MS as […]
SM5 Tissue binding of SH045
The tissue binding of SH045 was analyzed exemplarily in lung, liver and kidney homogenate using ultrafiltration [5]. […] 20 µL of the mixture and the filtrate were analyzed for SH045. […]
Testosterone (10 µM in ACN/DPBS 2/3, v/v) instead of SH045 was used as positive control and analyzed by an appropriate HPLC method with UV detection.
Negative controls contained either no NADPH, no MLM or HLM or none of them. The overall velocity (v) of degradation was calculated from altered SH045 concentration (∆c) obtained from reduction peak area ratio of SH045 as: v = ∆c / incubation time × concentration of enzyme × volume (nmol/ min × mg). […]

[3] = system: TRPC3/6 channels of rat pulmonary arterial smooth muscle cells (PASMC); set-up: method as in PMID 29522264; conditions: cited from earlier work

With C=C[C@@](C)(O)CC[C@H]1C(=C)C[C@H](OC(=O)NC)[C@H]2C(C)(C)CCC[C@]12C [SH045, (1S,4S,4aR,8aS)-4-((S)-3-Hydroxy-3-methylpent-4-en-1-yl)-4a,8,8-trimethyl-3-methylenedecahydronaphthalen-1-yl methylcarbamate] the “urine concentration after 2 h relative to IC50 reported in vitro” value [1] was “about 30 fold”, the “mean urine concentration of unmetabolized SH045” value (shortened to “mean urine concentration”) ([1]; micturition period 10–30 min) was 748 ± 31 nM and the “mean urine concentration” value ([1]; micturition period 60–80 min) was 1056 ± 104 nM. The “mean urine concentration” value ([1]; micturition period 100–120 min) was 162 ± 17 nM and 160 nM, the “cytochrome P450 isoenzymes metabolizing SH045” value [2] was “substrate of CYP3A4 and CYP2A6” and the “OAG-induced Ca^2+ entry” value [3] was “inhibition”.
